Where two headings read alike, the source gives them in different places.
Legend:
[1] = Solubility of DIMPTS in cyanoacrylate monomer; format: physicochemical
Source text: Diiodomethyl-p-tolylsulfone (DIMPTS) is soluble in cyanoacrylate monomer at least up to 15,000 ppm (wt./wt.). Accordingly, formulations may herein have a concentration of diiodomethyl-p-tolylsulfone ranging from about 500 (0.05%) to about 10,000 ppm (1.00%), preferably from about 700 (0.07%) to about 7,000 ppm (0.70%), more preferably the concentration of diiodomethyl-p-tolylsulfone is about 2800 ppm (0.28%).

[2] = test system: Candida albicans 10231; assay: MIC/MBC of pure DIMPTS, tube dilution procedure; format: cell-based
Experimental: (§1) Minimum inhibitory concentration is the lowest concentration that prevents the development of visible growth after a period of incubation. Minimum bactericidal concentration is the lowest concentration that achieves a 1000 fold or greater reduction in the original bacterial inoculum. The minimum inhibitory concentration (MIC) and minimum bactericidal concentration (MBC) is evaluated using tube dilution procedure.
(§2) The effectiveness of the antimicrobial property of pure DIMPTS is described in terms of minimum inhibitory concentration (MIC) and minimum bactericidal concentration (MBC) in Table II (A).

[3] = test system: Bacillus subtilis 902173; assay: MIC/MBC of pure DIMPTS, tube dilution procedure; format: cell-based; details: preliminary evaluation
Experimental: as §1, §2

[4] = test system: Streptococcus agalactiae 624; assay: MIC/MBC of pure DIMPTS, tube dilution procedure; format: cell-based; details: preliminary evaluation
Experimental: as §1, §2

[5] = test system: Escherichia coli 8739; assay: MIC/MBC of pure DIMPTS, tube dilution procedure; format: cell-based; details: preliminary evaluation
Experimental: as §1, §2

[6] = test system: Pseudomonas aeruginosa 9027; assay: MIC/MBC of pure DIMPTS, tube dilution procedure; format: cell-based; details: preliminary evaluation
Experimental: as §1, §2

[7] = test system: Staphylococcus aureus 6538; assay: MIC/MBC of pure DIMPTS, tube dilution procedure; format: cell-based; details: preliminary evaluation
Experimental: as §1, §2

[8] = test system: Staphylococcus epidermidis 51625; assay: MIC/MBC of pure DIMPTS, tube dilution procedure; format: cell-based; details: preliminary evaluation
Experimental: as §1, §2

[9] = test system: Enterococcus faecium 700221; assay: MIC/MBC of pure DIMPTS, tube dilution procedure; format: cell-based; details: preliminary evaluation
Experimental: as §1, with “procedure. The effectiveness of the antimicrobial property of pure […] is described in terms of minimum inhibitory concentration (MIC) and minimum bactericidal concentration (MBC) in Table II (A).” for “procedure.”

[10] = test system: Staphylococcus aureus 33591; assay: MIC/MBC of pure DIMPTS, tube dilution procedure; format: cell-based; details: preliminary evaluation
Experimental: as §1, with “procedure. The effectiveness of the antimicrobial property of pure […] is described in terms of minimum inhibitory concentration (MIC) and minimum bactericidal concentration (MBC) in Table II (A).” for “procedure.”

[11] = aqueous; cited from earlier work

soluble in cyanoacrylate monomer [1]	MIC ([2]; Candida albicans 10231, preliminary evaluation, read-out: MIC)	MIC ([2]; Candida albicans, 10231, statement in description, strain not given, read-out: minimum inhibitory concentration against C. albicans)	MIC [3]	MIC [4]	MIC [5]	MIC [6]	MIC [7]	MIC [8]	MIC [9]	MIC [10]	Compound	MBC ([2]; Candida albicans 10231, preliminary evaluation)	MBC [3]	MBC [4]	MBC [5]	MBC [7]	MBC [8]	MBC [10]	pKa [11]
≥ 15,000 ppm (wt./wt.)	5 µg/mL	~5 µg/mL	50 µg/mL	50 µg/mL	100 µg/mL	> 100 µg/mL	100 µg/mL	25 µg/mL	50 µg/mL	12.5 µg/mL	Cc1ccc(S(=O)(=O)C(I)I)cc1 [DIMPTS, diiodomethyl-p-tolylsulfone]	10 to 100 µg/mL	50 to 100 µg/mL	125 to 250 µg/mL	< 250 µg/mL	< 250 µg/mL	< 100 µg/mL	< 250 µg/mL	
											[O-][Cl+3]([O-])([O-])O [perchloric acid]								−5.0
